# According to US6379400B1, “Dye compositions and methods of dyeing keratin fibers” (Wella Aktiengesellschaft, priority 1998, dated 2002):
row,SMILES,melting point
1,"COCCNc1ccc([N+](=O)[O-])cc1 [Example 1, N-(2-methoxyethyl)-4-nitro-phenylamine]",85 to 87 °C
2,"COCCNc1ccc([N+](=O)[O-])cc1C [Example 2, N-(2-methoxyethyl)-2-methyl-4-nitrophenylamine]",97 to 100 °C
